Data reported in US10131652B2, “Pyrimidinyloxy benzene derivatives as herbicides” (E. I. DU PONT DE NEMOURS AND COMPANY, priority 2014, dated 2018).

Key:
Assay type in all cases: in vivo
[1] = tested on: Italian ryegrass (Lolium multiflorum); assay: Test B pre-/postemergence plant response
Source text: (§1) Seeds of plant species selected from bamyardgrass (Echinochloa crus-galli), kochia (Kochia scoparia), ragweed (common ragweed, Ambrosia elatior), Italian ryegrass (Lolium multiflorum), large (Lg) crabgrass (Digitaria sanguinalis), giant foxtail (Setaria faberii), momingglory (Ipomoea spp.), pigweed (Amaranthus retroflexus), velvetleaf (Abutilon theophrasti), wheat (Triticum aestivum), and corn (Zea mays) were planted into a blend of loam soil and sand and treated preemergence with a directed soil spray using test chemicals formulated in a non-phytotoxic solvent mixture which included a surfactant. At the same time, plants selected from these crop and weed species and also blackgrass (Alopecurus myosuroides), and galium (catchweed bedstraw, Galium aparine) were planted in pots containing the same blend of loam soil and sand and treated with postemergence applications of test chemicals formulated in the same manner. Plants ranged in height from 2 to 10 cm and were in the one- to two-leaf stage for the postemergence treatment. Treated plants and untreated controls were maintained in a greenhouse for approximately 10 days, after which time all treated plants were compared to untreated controls and visually evaluated for injury. Plant response ratings, summarized in Table B, are based on a 0 to 100 scale where 0 is no effect and 100 is complete control. A dash (-) response means no test result.

[2] = tested on: barnyardgrass (Echinochloa crus-galli); assay: Test B pre-/postemergence plant response
Source text: as §1

corn (Zea mays) = assay: Test B pre-/postemergence plant response
Source text: as §1

[3] = tested on: giant foxtail (Setaria faberii); assay: Test B pre-/postemergence plant response
Source text: as §1

kochia (Kochia scoparia) = assay: Test B pre-/postemergence plant response
Source text: as §1

[4] = tested on: pigweed (Amaranthus retroflexus); assay: Test B pre-/postemergence plant response
Source text: as §1

[5] = tested on: ragweed (common ragweed, Ambrosia elatior); assay: Test B pre-/postemergence plant response
Source text: as §1

[6] = tested on: wheat (Triticum aestivum); assay: Test B pre-/postemergence plant response
Source text: as §1

[7] = tested on: blackgrass (Alopecurus myosuroides); assay: Test B postemergence plant response
Source text: (§2) At the same time, plants selected from these crop and weed species and also blackgrass (Alopecurus myosuroides), and galium (catchweed bedstraw, Galium aparine) were planted in pots containing the same blend of loam soil and sand and treated with postemergence applications of test chemicals formulated in the same manner. Plants ranged in height from 2 to 10 cm and were in the one- to two-leaf stage for the postemergence treatment. Treated plants and untreated controls were maintained in a greenhouse for approximately 10 days, after which time all treated plants were compared to untreated controls and visually evaluated for injury. Plant response ratings, summarized in Table B, are based on a 0 to 100 scale where 0 is no effect and 100 is complete control. A dash (-) response means no test result.

[8] = tested on: galium (catchweed bedstraw, Galium aparine); assay: Test B postemergence plant response
Source text: as §2

[9] = 31 g ai/ha, Postemergence, 0 to 100 scale, 0 no effect, 100 complete control
[10] = 125 g ai/ha, postemergence, 0 to 100 scale, 0 no effect, 100 complete control
[11] = Preemergence, 31 g ai/ha, 0 to 100 scale (0 no effect, 100 complete control)
[12] = Preemergence, 125 g ai/ha, 0 to 100 scale where 0 is no effect and 100 is complete control
[13] = Postemergence, 1000 g ai/ha, 0 to 100 scale (0 no effect, 100 complete control)
[14] = Preemergence, 1000 g ai/ha, 0 to 100 scale (0 no effect, 100 complete control)

## FC(F)=Cc1cc(-c2c(F)cccc2Oc2ncc(Cl)cn2)no1 [Compound 91]
[1]; [9]
  Plant response rating, Ryegrass, Italian: 0
[1]; [10]
  Plant response rating, Ryegrass, Italian: 0
[1]; [11]
  Ryegrass, Italian plant response rating: 0
[1]; [12]
  Plant response rating, Ryegrass, Italian: 0
[2]; [9]
  Plant response rating, Barnyardgrass: 0
[2]; [10]
  Plant response rating, Barnyardgrass: 0
[2]; [11]
  Barnyardgrass plant response rating: 0
[2]; [12]
  Plant response rating, Barnyardgrass: 0
Corn (Zea mays); [9]
  Plant response rating, Corn: 0
Corn (Zea mays); [10]
  Plant response rating, Corn: 0
[3]; [9]
  Plant response rating, Foxtail, Giant: 0
[3]; [10]
  Plant response rating, Foxtail, Giant: 0
[3]; [11]
  Foxtail, Giant plant response rating: 0
[3]; [12]
  Plant response rating, Foxtail, Giant: 0
Kochia (Kochia scoparia); [9]
  Plant response rating, Kochia: 0
Kochia (Kochia scoparia); [10]
  Plant response rating, Kochia: 0
Kochia (Kochia scoparia); [11]
  Kochia plant response rating: 0
Kochia (Kochia scoparia); [12]
  Plant response rating, Kochia: 0
[4]; [9]
  Plant response rating, Pigweed: 0
[4]; [10]
  Plant response rating, Pigweed: 0
[4]; [11]
  Pigweed plant response rating: 0
[4]; [12]
  Plant response rating, Pigweed: 0
[5]; [9]
  Plant response rating, Ragweed: 0
[5]; [10]
  Plant response rating, Ragweed: 0
[5]; [11]
  Ragweed plant response rating: 0
[5]; [12]
  Plant response rating, Ragweed: 0
[6]; [9]
  Plant response rating, Wheat: 0
[6]; [10]
  Plant response rating, Wheat: 0
[7]; [9]
  Plant response rating, Blackgrass: 0
[7]; [10]
  Plant response rating, Blackgrass: 0
[8]; [9]
  Plant response rating, Galium: 0
[8]; [10]
  Plant response rating, Galium: 0

## CCOC(=O)c1cc(-c2ccccc2Oc2ncc(Cl)cn2)no1 [Compound 148]
[1]; [13]
  Plant response rating, Ryegrass, Italian: 0
[1]; [14]
  Plant response rating, Ryegrass, Italian: 0
[2]; [13]
  Plant response rating, Barnyardgrass: 10
[2]; [14]
  Plant response rating, Barnyardgrass: 0
Corn (Zea mays); [13]
  Plant response rating, Corn: 0
[3]; [13]
  Plant response rating, Foxtail, Giant: 10
[3]; [14]
  Plant response rating, Foxtail, Giant: 0
Kochia (Kochia scoparia); [13]
  Plant response rating, Kochia: 0
Kochia (Kochia scoparia); [14]
  Plant response rating, Kochia: 0
[4]; [13]
  Plant response rating, Pigweed: 0
[4]; [14]
  Plant response rating, Pigweed: 0
[5]; [13]
  Plant response rating, Ragweed: 0
[6]; [13]
  Plant response rating, Wheat: 0
[7]; [13]
  Plant response rating, Blackgrass: 10
[8]; [13]
  Plant response rating, Galium: 0

## Clc1cnc(Oc2ccccc2-c2ncns2)nc1 [Compound 172]
[1]; [13]
  Plant response rating, Ryegrass, Italian: 0
[1]; [14]
  Plant response rating, Ryegrass, Italian: 0
[2]; [13]
  Plant response rating, Barnyardgrass: 10
[2]; [14]
  Plant response rating, Barnyardgrass: 0
Corn (Zea mays); [13]
  Plant response rating, Corn: 10
[3]; [13]
  Plant response rating, Foxtail, Giant: 10
[3]; [14]
  Plant response rating, Foxtail, Giant: 30
Kochia (Kochia scoparia); [13]
  Plant response rating, Kochia: 30
Kochia (Kochia scoparia); [14]
  Plant response rating, Kochia: 20
[4]; [13]
  Plant response rating, Pigweed: 80
[4]; [14]
  Plant response rating, Pigweed: 90
[5]; [13]
  Plant response rating, Ragweed: 10
[5]; [14]
  Plant response rating, Ragweed: 0
[6]; [13]
  Plant response rating, Wheat: 0
[7]; [13]
  Plant response rating, Blackgrass: 0
[8]; [13]
  Plant response rating, Galium: 10

## O=Cc1cc(-c2c(Br)cccc2Oc2ncc(Cl)cn2)no1 [Compound 195]
[1]; [13]
  Plant response rating, Ryegrass, Italian: 10
[1]; [14]
  Plant response rating, Ryegrass, Italian: 0
[2]; [13]
  Plant response rating, Barnyardgrass: 10
[2]; [14]
  Plant response rating, Barnyardgrass: 40
Corn (Zea mays); [13]
  Plant response rating, Corn: 10
[3]; [13]
  Plant response rating, Foxtail, Giant: 10
[3]; [14]
  Plant response rating, Foxtail, Giant: 30
Kochia (Kochia scoparia); [13]
  Plant response rating, Kochia: 10
Kochia (Kochia scoparia); [14]
  Plant response rating, Kochia: 0
[4]; [13]
  Plant response rating, Pigweed: 50
[4]; [14]
  Plant response rating, Pigweed: 60
[5]; [13]
  Plant response rating, Ragweed: 10
[5]; [14]
  Plant response rating, Ragweed: 10
[6]; [13]
  Plant response rating, Wheat: 0
[7]; [13]
  Plant response rating, Blackgrass: 0
[8]; [13]
  Plant response rating, Galium: 10

## COC(=O)c1cc(-c2ccccc2Oc2ncc(Cl)cn2)no1 [Compound 235]
[1]; [13]
  Plant response rating, Ryegrass, Italian: 0
[1]; [14]
  Plant response rating, Ryegrass, Italian: 0
[2]; [13]
  Plant response rating, Barnyardgrass: 0
[2]; [14]
  Plant response rating, Barnyardgrass: 0
Corn (Zea mays); [13]
  Plant response rating, Corn: 0
[3]; [13]
  Plant response rating, Foxtail, Giant: 0
[3]; [14]
  Plant response rating, Foxtail, Giant: 0
Kochia (Kochia scoparia); [13]
  Plant response rating, Kochia: 0
Kochia (Kochia scoparia); [14]
  Plant response rating, Kochia: 0
[4]; [13]
  Plant response rating, Pigweed: 0
[4]; [14]
  Plant response rating, Pigweed: 0
[5]; [13]
  Plant response rating, Ragweed: 0
[5]; [14]
  Plant response rating, Ragweed: 0
[6]; [13]
  Plant response rating, Wheat: 0
[7]; [13]
  Plant response rating, Blackgrass: 0
[8]; [13]
  Plant response rating, Galium: 0
